# Test results from US20230123334A1, “AMINO LIPID COMPOUND, PREPARATION METHOD THEREFOR, AND APPLICATION THEREOF” (SHENZHEN SHENXIN BIOTECHNOLOGY CO., LTD., priority 2020, published 2023).
# Columns and labels:
# [1] = system: HEK293 cells; test: Preliminary screening as DNA vectors, GFP transfection of HEK293 cells; assay type: cell-based; settings: HEK293 cells; lipid/DOPE liposome with 75 ng plasmid DNA (psin-EGFP-IRES-Puro); number of cells expressing GFP divided by total number of nuclei (Hoechst)
# How it was run: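 First, amino lipid and DOPE were vortexed in sodium acetate buffer (pH 5.6) to form liposomes. Next, these were held with 75 ng EGFP plasmid at room temperature for 30 min. Finally, HEK293 cells were added, cultured at 37° C., Hoechst-stained, and GFP+/total nuclei scored by imaging.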
# [2] = system: HEK293 cells; test: Preliminary screening as mRNA vectors, EGFP mRNA transfection of HEK293 cells; assay type: cell-based; settings: HEK293 cells, 96-well plates, EGFP mRNA 50 ng per well; percentage of GFP fluorescent cells relative to total number of cells (Hoechst)
# How it was run: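 Screening format: EGFP mRNA transfection (50 ng/well) into HEK293 in 10% FBS-supplemented DMEM. Percent green fluorescent cells, normalised to Hoechst nuclear count, gave the value; Lipofectamine2000 was the reference transfectant.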
SMILES,Absolute DNA transfection efficiency in HEK293 cells [1] [%],Absolute mRNA transfection efficiency in HEK293 cells [2] [%]
CCCCCCCCCCCCCCCCCCNc1nc(NCCCCCCCCCCCCCCCCCC)nc(NCCCN2CCN(C)CC2)n1 [Compound N18N18D9],0.0,0.0
CCCCCCCCCCCCCCCCCCNc1nc(NCCCCCCCCCCCCCCCCCC)nc(NCC2CCN(C)CC2)n1 [Compound N18N18D10],0.0,0.0
CCCCCCCCCCCCCCSc1nc(NCCN(C)C)nc(SCCCCCCCC)n1 [Compound S8S14D1],8.3,0.7
CCCCCCCCCCCCCCSc1nc(NCCN2CCOCC2)nc(SCCCCCCCC)n1 [Compound S8S14D2],18.5,0.4
CCCCCCCCCCCCCCSc1nc(NCCN2CCCC2)nc(SCCCCCCCC)n1 [Compound S8S14D3],13.9,3.4
CCCCCCCCCCCCCCSc1nc(NCCN2CCCCC2)nc(SCCCCCCCC)n1 [Compound S8S14D4],9.3,3.1
CCCCCCCCCCCCCCSc1nc(NCCN2CCN(C)CC2)nc(SCCCCCCCC)n1 [Compound S8S14D5],29.9,52.7
CCCCCCCCCCCCCCSc1nc(NCCCN(C)C)nc(SCCCCCCCC)n1 [Compound S8S14D6],16.2,79.5
CCCCCCCCCCCCCCSc1nc(NCCN(CC)CC)nc(SCCCCCCCC)n1 [Compound S8S14D7],7.5,1.3
CCCCCCCCCCCCCCSc1nc(NCCCN2CCOCC2)nc(SCCCCCCCC)n1 [Compound S8S14D8],17.1,3.4
CCCCCCCCCCCCCCSc1nc(NCCCN2CCN(C)CC2)nc(SCCCCCCCC)n1 [Compound S8S14D9],16.0,13.5
CCCCCCCCCCCCCCSc1nc(NCC2CCN(C)CC2)nc(SCCCCCCCC)n1 [Compound S8S14D10],41.1,60.5
CCCCCCCCCCCCCCCSc1nc(NCCN(C)C)nc(SCCCCCCCC)n1 [Compound S8S15D1],8.1,0.4
CCCCCCCCCCCCCCCSc1nc(NCCN2CCOCC2)nc(SCCCCCCCC)n1 [Compound S8S15D2],10.8,0.0
CCCCCCCCCCCCCCCSc1nc(NCCN2CCCC2)nc(SCCCCCCCC)n1 [Compound S8S15D3],21.8,0.9
CCCCCCCCCCCCCCCSc1nc(NCCN2CCCCC2)nc(SCCCCCCCC)n1 [Compound S8S15D4],11.2,2.6
CCCCCCCCCCCCCCCSc1nc(NCCN2CCN(C)CC2)nc(SCCCCCCCC)n1 [Compound S8S15D5],31.2,40.0
CCCCCCCCCCCCCCCSc1nc(NCCCN(C)C)nc(SCCCCCCCC)n1 [Compound S8S15D6],24.5,45.0
CCCCCCCCCCCCCCCSc1nc(NCCN(CC)CC)nc(SCCCCCCCC)n1 [Compound S8S15D7],13.8,0.0
CCCCCCCCCCCCCCCSc1nc(NCCCN2CCOCC2)nc(SCCCCCCCC)n1 [Compound S8S15D8],23.0,8.0
CCCCCCCCCCCCCCCSc1nc(NCCCN2CCN(C)CC2)nc(SCCCCCCCC)n1 [Compound S8S15D9],13.9,22.0
CCCCCCCCCCCCCCCSc1nc(NCC2CCN(C)CC2)nc(SCCCCCCCC)n1 [Compound S8S15D10],32.1,64.0
CCCCCCCCCCCCCCCCSc1nc(NCCN(C)C)nc(SCCCCCCCC)n1 [Compound S8S16D1],4.6,2.2
CCCCCCCCCCCCCCCCSc1nc(NCCN2CCOCC2)nc(SCCCCCCCC)n1 [Compound S8S16D2],15.7,0.2

SMILES,Absolute DNA transfection efficiency in HEK293 cells [1] [%],Absolute mRNA transfection efficiency in HEK293 cells [2] [%]
CCCCCCCCCCCCCCCCSc1nc(NCCN2CCCC2)nc(SCCCCCCCC)n1 [Compound S8S16D3],20.7,37.3
CCCCCCCCCCCCCCCCSc1nc(NCCN2CCCCC2)nc(SCCCCCCCC)n1 [Compound S8S16D4],10.2,2.1
CCCCCCCCCCCCCCCCSc1nc(NCCN2CCN(C)CC2)nc(SCCCCCCCC)n1 [Compound S8S16D5],3.7,20.5
CCCCCCCCCCCCCCCCSc1nc(NCCCN(C)C)nc(SCCCCCCCC)n1 [Compound S8S16D6],33.0,61.0
CCCCCCCCCCCCCCCCSc1nc(NCCN(CC)CC)nc(SCCCCCCCC)n1 [Compound S8S16D7],11.8,0.5
CCCCCCCCCCCCCCCCSc1nc(NCCCN2CCOCC2)nc(SCCCCCCCC)n1 [Compound S8S16D8],28.6,4.4
CCCCCCCCCCCCCCCCSc1nc(NCC2CCN(C)CC2)nc(SCCCCCCCC)n1 [Compound S8S16D10],75.2,98.3
CCCCCCCCCCCCCCCCCCSc1nc(NCCN(C)C)nc(SCCCCCCCC)n1 [Compound S8S18D1],7.6,3.9
CCCCCCCCCCCCCCCCCCSc1nc(NCCN2CCOCC2)nc(SCCCCCCCC)n1 [Compound S8S18D2],0.9,0.0
CCCCCCCCCCCCCCCCCCSc1nc(NCCN2CCCC2)nc(SCCCCCCCC)n1 [Compound S8S18D3],14.3,61.5
CCCCCCCCCCCCCCCCCCSc1nc(NCCN2CCCCC2)nc(SCCCCCCCC)n1 [Compound S8S18D4],15.8,2.0
CCCCCCCCCCCCCCCCCCSc1nc(NCCN2CCN(C)CC2)nc(SCCCCCCCC)n1 [Compound S8S18D5],9.6,27.5
CCCCCCCCCCCCCCCCCCSc1nc(NCCCN(C)C)nc(SCCCCCCCC)n1 [Compound S8S18D6],8.2,19.1
CCCCCCCCCCCCCCCCCCSc1nc(NCCN(CC)CC)nc(SCCCCCCCC)n1 [Compound S8S18D7],9.2,3.8
CCCCCCCCCCCCCCCCCCSc1nc(NCCCN2CCOCC2)nc(SCCCCCCCC)n1 [Compound S8S18D8],18.7,4.2
CCCCCCCCCCCCCCCCCCSc1nc(NCCCN2CCN(C)CC2)nc(SCCCCCCCC)n1 [Compound S8S18D9],17.7,28.1
CCCCCCCCCCCCCCCCCCSc1nc(NCC2CCN(C)CC2)nc(SCCCCCCCC)n1 [Compound S8S18D10],19.3,59.6
CCCCCCCCCSc1nc(NCCN(C)C)nc(SCCCCCCCCC)n1 [Compound S9S9D1],12.9,0.8
CCCCCCCCCSc1nc(NCCN2CCOCC2)nc(SCCCCCCCCC)n1 [Compound S9S9D2],6.8,3.1
CCCCCCCCCSc1nc(NCCN2CCCC2)nc(SCCCCCCCCC)n1 [Compound S9S9D3],11.9,4.5
CCCCCCCCCSc1nc(NCCN2CCCCC2)nc(SCCCCCCCCC)n1 [Compound S9S9D4],14.5,2.1
CCCCCCCCCSc1nc(NCCN2CCN(C)CC2)nc(SCCCCCCCCC)n1 [Compound S9S9D5],12.5,37.1
CCCCCCCCCSc1nc(NCCCN(C)C)nc(SCCCCCCCCC)n1 [Compound S9S9D6],5.6,33.0
CCCCCCCCCSc1nc(NCCN(CC)CC)nc(SCCCCCCCCC)n1 [Compound S9S9D7],32.6,3.6
